This is an account of results in patent US20070128139A1, “Hair treatment compositions comprising hydroxy comopounds” (priority 2002, published 2007).

The experiment in a line: cuticle abrasion test (hair washed with shampoo test composition, blended, cuticle recovered and weighed). The conditions noted are these: freeze-dried cuticle weighed back after abrasion; 0.03M compound in base shampoo; 4 g hair washed twice in 0.4 g test composition; lower = less cuticle loss. The method, then: A base shampoo composition was prepared, comprising 12 wt % sodium lauryl ether sulphate (2EO), […] cocoamidopropyl betaine and 86 wt. % water.
To this base solution 0.03M of the following compounds was added:
The compositions were tested in a cuticle abrasion test. Root end hair (as received form the supplier) was pre-cleaned by washing for 1 minute in Composition I followed by copious rinsing in double deionised water. The hair was left to dry naturally over 24 hrs.
For each test, 4 g of hair was washed in 0.4 g of the test composition for 30 seconds, rinsed for 30 seconds, and the washing/rinsing cycle repeated. The hair was left to dry naturally overnight.
The hair was cut into 1 cm lengths, placed in a blender bucket and 200 ml of double de-ionized water was added. The blender was placed on full power for 1 minute. The liquor was decanted off and transferred to a 50 ml centrifuge tube and centrifuged for 10 minutes at 4,300 RPM. The resulting clear liquor was decanted off leaving the cuticle sediment at the bottom of the tube.
The cuticle was transferred from the tube into a beaker with 3×5 ml washes and passed through a series of sieves (425 and 53 microns). The sieves were washed with a further 2×10 ml of water to ensure complete recovery of the cuticle. The sample was made up to 50 ml in a centrifuge tube, centrifuged for 15 minutes and the liquor decanted off. The cuticle was transferred with double deionised water (2×10 ml washes) to a beaker and freeze-dried.
The freeze-dried cuticle was weighed back to determine percentage recovery.
For the compound `CCCCC(O)C(C)C` (stereo not drawn) [Example 3, 2-methyl-3-heptanol], the “% recovery” value turned out to be 0.55%. The same measure for `CCCC(C)(C)O` [Example 4, 2-methyl-2-pentanol]: 0.58%; for `CCCC(C)CO` (stereo not drawn) [Example 7, 2-methyl-1-pentanol]: 0.64%; for `CCCCC(C)(C)O` [Example 1, 2-methyl-2-hexanol]: 0.53%. For the compound `CCCCCC(C)(C)O` [Example 2, 2-methyl-2-heptanol], the “% recovery” value came out at 0.54%. Turning to `CC(C)CC(C)O` (stereo not drawn) [C, 4-methyl-2-pentanol, reference compound], the “% recovery” value is given as 0.79%. Consider `CCC(C)C(C)O` (stereo not drawn) [Example 6, 3-methyl-2-pentanol], for which the “% recovery” value is given as 0.62%.

For `CCCC(C)(O)CC(C)C` (stereo not drawn) [Example A, 2,4-dimethyl-4-heptanol, reference compound], the “% recovery” value is reported as 0.84%. Turning to `CCC(C)(O)CCCC(C)C` (stereo not drawn) [B, 3,7-dimethyl-3-octanol, reference compound], the “% recovery” value is on record as 0.84%.
